Test results taken from US12626779B2, “Determining a targeted therapy using virtual inference of protein activity by regulon enrichment analysis of an individual subject tissue sample” (The Trustees of Columbia University in the City of New York, priority 2015, dated 2026).
Several values for one entry are separate records, joined by “and”; a condition that tells them apart may be missing. Equal values may be shown once. Read-outs that look alike come from different tables or passages of the source.

Tested on: lung adenocarcinoma cell lines
Text: FIG. 7A illustrates the probability density for the nonmutated (salmon) and mutated (green) samples based on MPS for six actionable mutations (complete list in FIGS. 21A-21F). Right plots show MPS (v axis) for all samples rank-sorted by MPS; green vertical lines indicate the mutated samples. MPS-defined WT and mutant phenotypes (likelihood ratio >3) are highlighted in salmon and green. […] Scatter plots show drug sensitivity, quantified by the area under the titration curves (AUC), for EGFR-targeting drugs as a function of MPS (expressed as likelihood ratio). Cell lines resembling an EGFR mutated and WT phenotypes are highlighted in green (likelihood ratio >3) and salmon boxes, respectively. Green dots indicate cell lines harboring nonsilent mutations. Solid and doted horizontal lines indicate the mean and 2.33 standard deviation over the mean of the chemoresistant cell lines, respectively. […] Violin plots show the probability density for drug sensitivity (AUC) of the cell lines showing an EGFR WT (green) or mutant (brown) phenotype according to MPS; horizontal lines indicate distribution means, which were contrasted by Student t-test (P values in insets).

[1] = EGFR-mutated cell lines with MPS>0.5
[2] = cell lines with low EGFR MPS (<−0.5) that yet harbored EGFR mutations

SMILES	fraction of cell lines responding to EGFR inhibitors (EGFR WT cell lines with MPS<−0.5)	fraction of cell lines responding to EGFR inhibitors (EGFR WT cell lines with MPS>0.5)	cell lines observed to be sensitive to the drug (sensitive/total) [1]	cell lines observed to be sensitive to the drug (sensitive/total) [2]	fraction of cell lines responding to EGFR inhibitors
CN1CCN(CCOc2cc(OC3CCOCC3)c3c(Nc4c(Cl)ccc5c4OCO5)ncnc3c2)CC1 [AZD0530, saracatinib]	33%	50%	5/6	0/2	–
CS(=O)(=O)CCNCc1ccc(-c2ccc3ncnc(Nc4ccc(OCc5cccc(F)c5)c(Cl)c4)c3c2)o1 [lapatinib]	–	–	4/6	1/2	36% and 27%
C#Cc1cccc(Nc2ncnc3cc(OCCOC)c(OCCOC)cc23)c1 [erlotinib]	–	–	5/6	1/2	–
